Here are results for three molecules from patent publication US7820667B2, “Methods of treating hypertension” (Daiichi Sankyo Company, Limited, priority 2005, dated 2010).

One data set has as its system rats. Description: Acute toxicity to rats. In kind it is in vivo.
For data set [1] the following is noted: as reported in Japanese Patent Public Disclosure No. 25323/84; cited from earlier work.
Data set [2] relates to DOCA-salt SHRs. The conditions noted are these: in vivo, po, 10 mg/kg/day.
Procedure: One kidney was removed from 8-week old SHRs (supplied from Charles River) except for a control group. Then, the animals were divided into the following three experimental groups. • 1) A group given drinking water only (control group); sample size n=8; • 2) A group of DOCA-salt SHRs prepared by giving 30 mg/kg b.w. of deoxycorticosterone acetate (DOCA) subcutaneously once a week and 1% saline as drinking water from one week after nephrectomy (DOCA group); n 4; • 3) A group of DOCA-salt SHRs administered BH4 (10 mg/kg b.w./day) orally (DOCA+BH4 group); n=6.
Urine was collected for 24 hours using a metabolic cage at the start of experiment and after 2, 3, 4, 5 and 6 (at the termination of the observation period) weeks. At the termination of the observation period, blood sample was collected from abdominal aorta under anesthesia with Phenobarbital.
Biopterin (BP), a metabolite of BH4, was measured by a HPLC according to the procedure of Fukushima and Nixon. The effects of BH4 administration are evaluated on the basis of change of BP level in urine.
The measured values were expressed as means±standard error and evaluated statistically using two-way ANOVA test. In the following analyses, the significant level sets p<0.05.
In data set [3] the test system is DOCA-salt hypertension rats. Description: NO2/NO3 in urine (Griess method) in DOCA-salt hypertension rats. Type of data set: in vivo, Sprague-Dawley rats. The conditions noted are these: BH4 10 mg/kg b.w./day orally. The protocol: One kidney was removed from each of 8-week-old Sprague-Dawley rats (supplied from Charles River) except for a control group. […] The measurement was carried out using Nitrate-Nitrite assay kit, (kit No. 780001, Cyman Chemical Company) according to the Griess method. The values of NO2/NO3 in urine means the activity of NOS, namely, higher the value, higher the activity.
On the technique in general: The Griess reaction detects nitrite, a stable product of nitric oxide.

For the next data set, the system named is endothelial NOS (e-NOS). Briefly: Immunostaining of renal tissue NOS (anti-e-NOS antibody). In kind it is in vivo, Sprague-Dawley rats. The following applies: renal tissues, DOCA-salt hypertension rats, BH4 10 mg/kg b.w./day orally, end of observation (5 weeks). The source says:
(§1) One kidney was removed from each of 8-week-old Sprague-Dawley rats (supplied from Charles River) except for a control group.
(§2) The expression of endothelial NOS (e-NOS) and brain NOS (b-NOS) in renal tissues was examined in the sections of the isolated frozen renal tissues by immunostaining with anti-e-NOS and anti-b-NOS antibodies (Affinity Bioreagents), respectively.

The test system of data set [4] is DOCA-salt hypertension rats. Description: Biopterin (BP) in urine by HPLC in DOCA-salt hypertension rats. In kind it is in vivo, Sprague-Dawley rats. The conditions noted are these: BH4 10 mg/kg b.w./day orally.
Excerpt: as §1

For data set [5], the system named is DOCA-salt hypertension rats. Description: Blood pressure by tail-cuff method in DOCA-salt hypertension rats. The following applies: BH4 10 mg/kg b.w./day orally. In kind it is in vivo, Sprague-Dawley rats. The protocol:
One kidney was removed from each of 8-week-old Sprague-Dawley rats (supplied from Charles River) except for a control group. […] Blood pressure was measured by the tail-cuff method at the start of experiment and 2, 4 and 5 weeks.

The next data set deals with e-NOS mRNA. Briefly: Measurement of NOS mRNA expression in renal tissues (RT-PCR, Southern hybridization). In kind it is in vivo, Sprague-Dawley rats. The conditions noted are these: renal cortex, DOCA+BH4 group as compared with DOCA group, normalized against MDH, FIG. 4. The protocol:
as §1
Extraction of RNA from renal tissues was performed by the guanidium/cesium chloride extraction method.
Namely, a small amount of tissues collected from renal cortex of the isolated kidney was added immediately to a lysis solution 4M guanidinium thiocyanate and homogenized by a glass/Teflon homogenizer. This lysate was overlaid on 5.7M cesium chloride and centrifuged at 80,000 rpm for 2 hours, then the precipitate was dissolved in 0.1% diethyl pyrocarbonate (DEP) solution. This solution was precipitated with 2.5M ammonium acetate and ethanol at −20° C. for one hour and centrifuged at 10,000 rpm at 4° C. for 20 minutes to give a precipitate. […]
Specifically, the RT reaction solution was added to a mixture of 5′- and 3′-primers for each of e-NOS to be detected and for malate dehyadrogenase (MDH) used as an internal standard, PCR buffer, 2.5 mM dNTP mixed solution and Taq DNA polymerase. […]
PCR products were electrophoresed on 5% polyacrylamide gel and NOS mRNA expression was measured by Southern hybridization.
Specifically, the PCR reaction solution was electrophoresed on 5% polyacrylamide and then, the gel was transferred to membrane filters. […] Then, autoradiography was run at −70° C. for several hours and the exposed autoradiograms were analyzed by a densitometer. […]

Data set [6] has as its system DOCA-salt SHRs. Description: Histopathological findings in renal tissues of DOCA-salt SHR. Type of data set: in vivo. From the text:
After collecting urine and measuring blood pressure at 6 weeks, the animals was incised under anesthesia, exsanguinated from abdominal aorta and perfused with physiological saline via this site. The isolated kidney was fixed in a 10% formaldehyde solution, embedded in paraffin, then sliced to 4 μm in thickness by a microtome. Samples were stained with hematoxylin/eosin (HE) and periodic acid-Shiff. The incidences of histopathological findings on necrotizing glomerulitis and necrotizing arteriolitis were compared among the groups.

The nature of data set [7]: Body weight of DOCA-salt hypertension rats. Type of data set: in vivo, Sprague-Dawley rats. The conditions noted are these: for Body weight: DOCA-salt hypertension rats, BH4 10 mg/kg b.w./day orally.
Excerpt: as §1

In a further data set the test system is brain NOS (b-NOS). Description: Immunostaining of renal tissue NOS (anti-b-NOS antibody). Type of data set: in vivo, Sprague-Dawley rats. The following applies: renal tissues, DOCA-salt hypertension rats, BH4 10 mg/kg b.w./day orally, end of observation (5 weeks).
Excerpt: as §1, §2

The test system of data set [8] is DOCA-salt SHRs. Description: Blood pressure by tail-cuff method in DOCA-salt SHR. Type of data set: in vivo. The following applies: BH4 10 mg/kg b.w./day orally. The protocol: Blood pressure was measured by the tail-cuff method at the start of experiments and after 2, 3, 4, 5 and 6 weeks.
The mark [9] stands for this setting: until termination of observation period.
The mark [10] stands for this setting: BH4 10 mg/kg b.w./day orally, kidney at 6 weeks.

As to `C[C@H](O)[C@H](O)[C@H]1CNc2[nH]c(N)nc(=O)c2N1.Cl.Cl` [BH4 dihydrochloride], the acute toxicity result in the data set on rats was “more than 2 g/kg (b.w.)”.

As to `C[C@H](O)[C@H](O)C1CNc2nc(N)[nH]c(=O)c2N1` (stereo partly drawn) [(6R,S)-5,6,7,8-tetrahydrobiopterin], the toxicity entry in [1] is on record as “only slightly toxic”.

`CC(O)C(O)C1CNc2nc(N)[nH]c(=O)c2N1` [BH4, (6R)-L-erythro-5,6,7,8-tetrahydrobiopterin]: the “Change of BP in urine (in words)” value (with DOCA-salt SHRs [2]; in data set [4]) was “showed an increase in the value of BP with time” each time. The “Change of NO2/NO3 in urine (in words)” value in data set [3] is “showed an increase in the value”. Further, the NO2/NO3 in urine in data set [3] (Start) came to 2.22 ± 0.7 µmol/day; in data set [3] (Week 4) it was 2 ± 0.55 µmol/day; in data set [3] (Week 5), 5.95 ± 1.9 µmol/day. Besides, in the data set on endothelial NOS (e-NOS), the “expression of e-NOS in small vessels (immunostaining)” value is reported as “comparable to the control group or slightly enhanced”. Moreover, the Blood pressure came to 105.72 mmHg in [5] (Start); 120.54 mmHg in [5] (Week 2); 111.91 mmHg in [5] (Week 4); 107.78 mmHg in data set [5] (Week 5); 130.22 mmHg with DOCA-salt SHRs [8] (Start); 133.60 mmHg with DOCA-salt SHRs [8] (Week 2). Further, the Blood pressure with DOCA-salt SHRs [8] (Week 3) is 143.63 mmHg; in the data set with DOCA-salt SHRs [8] (Week 4) it was 150.90 mmHg; with DOCA-salt SHRs [8] (Week 5) it was 159.30 mmHg; in the data set with DOCA-salt SHRs [8] (Week 6), 162.95 mmHg. Besides, the entries for the “Change of blood pressure (in words)” value (in data set [5] (setting [9]); in the data set with DOCA-salt SHRs [8] (setting [9])) were “stayed at normal blood pressures” and “showed the same blood pressures level as that of the control group”, respectively. Also, in the data set on e-NOS mRNA, the “expression of e-NOS mRNA” value is reported as “significantly enhanced”. Also, in the data set with DOCA-salt SHRs [6] (setting [10]), the “Percentage (%) of incidences of histopathological findings in renal tissues: Necrotizing angiitis” value was determined as 3.34 ± 0.94%. Moreover, the “Percentage (%) of incidences of histopathological findings in renal tissues: Necrotizing glomerulitis” value in the data set with DOCA-salt SHRs [6] (setting [10]) stood at 2.47 ± 1.07%. In addition, the “Histopathological findings (in words)” value in the data set with DOCA-salt SHRs [6] (oral administration of BH4) was “remarkably improved histopathological findings”. Further, the Body weight in data set [7] (Start) came out at 383.40 g; in data set [7] (Week 2) it was 386.40 ± 12.84 g; in [7] (Week 4) it was 431.20 ± 13.31 g; in data set [7] (Week 5), 446.80 ± 15.81 g. For the same molecule, the “Body weight (in words)” value in data set [7] (control, DOCA and DOCA+BH4 groups compared) was “no significant difference”. Moreover, the “expression of b-NOS in macula densa (immunostaining)” value in the data set with brain NOS (b-NOS) is on record as “comparable to the control group or slightly enhanced”.
